B1: IFN-γ: interferon-γ, increases the expression of HLA-class I molecules (protein, UniProt P01579 24-161, looked up)
Interferon gamma: QDPYVKEAENLKKYFNAGHSDVADNGTLFLGILKNWKEESDRKIMQSQIVSFYFKLFKNFKDDQSIQKSVETIKEDMNVKFFNSNKKKRDDFEKLTNYSVTDLNVQRKAIHELIQVMAELSPAAKTGKRKRSQMLFRG

Key:
[1] = test system: CD8+ T cells from psoriasis patients; test: Staining of PBMC from psoriasis patients with FITC-labelled HLA-C*06:02-peptide dextramers; assay type: binding, human; conditions: flow cytometry
Procedure: We used FITC-labelled HLA-C*06:02-peptide dextramers to stain CD8^+ T cells from psoriasis patients. […] Thus, the peptides can be used in complex with HLA-C dextramers to address autoreactive T cells in blood of psoriasis patients. • Autoantigenic peptides complexed with HLA-C*06:02-multimers can be used to identify autoreactive CD8^+ T cells in psoriasis. […]
Fluorescent dextramers were prepared of HLA-C*06:02 and antigenic or control peptides. […] PBMC from psoriasis patients were incubated with standard dilutions of the HLA-C*06:02-peptide dextramers and a phycoerythrin-labelled CD8 antibody and the frequency of double stained cells subsequently determined by flow cytometry on a FACScan flow cytometer. Data were analyzed by FlowJo software 887.

HLA-class I = assay type: cell-based; conditions: HLA-C*06:02-positive primary human melanocytes preincubated with IFN-γ
Description: When assessing the results given below, however, it needs to be considered that the percentage of activated i.e. green-fluorescing cells in this complex cell-based recombinant assay may differ between different experiments. It may be influenced by the stability of the respective hybridoma cell batch and, in co-culture experiments, by the quantitative ratio of stimulatory and hybridoma cells, which decides the probability of cell-cell contacts (Siewert et al., 2011).
We isolated primary melanocytes from the skin and seeded them in explant culture. Cell type was confirmed by the contents of brownish melanosomes and staining with a p75-specific antibody against melanocytes. […] This effect was further enhanced, when HLA-C*06:02-positive melanocytes were preincubated with interferon (IFN)-γ, which increases the expression of HLA-class I molecules (FIG. 2C). […] TCR-hybridoma activation was HLA-restricted.
(B) TCR-hybridoma activation by HLA-C*06:02-positive (left) or HLA-C*06:02-negative (right) primary human melanocytes (MC) in the absence or presence of IFN-γ or a HLA-class I blocking antibody. Frequency of NFAT-sGFP^+ hybridoma cells was assessed by flow cytometry and normalized to the maximum value induced by CD3 activation in the same experiment. […]

Molecule | staining / binding of CD8+ blood T cells by HLA-C*06:02-peptide dextramers [1] | effect of IFN-γ addition on TCR-hybridoma activation (HLA-class I)
VRHDGGNVL [unrelated peptide (Falk et al., 1993), HLA-C*06:02 ligand, negative control complexed with HLA-C*06:02-dextramers] | did not bind | 
B1 |  | increased

Source: patent publication US20190225647A1, “ANTIGENIC PEPTIDES FOR THE DIAGNOSIS, THERAPY MONITORING AND/OR TREATMENT OF PSORIASIS VULGARIS” (Ludwig-Maximilians-Universität München, priority 2015, published 2019)
